Data from patent US12655104B2, “Anticancer compounds selective for ER-positive cancers” (THE BOARD OF TRUSTEES OF THE UNIVERSITY OF ILLINOIS, priority 2020, dated 2026).
Like-named read-outs stand apart in the source and are kept apart here.

What was measured:
[1] = system: ERα− cancer cell lines; assay: Selectivity of cell killing, ERα+ versus ERα− cancer cell lines; assay type: cell-based
Protocol: (§1) Cancer Cell Lines: Culturing Conditions and Validation. All cell lines were cultured at 37° C. with 5% CO2. All ERα-positive cell lines were grown in media lacking phenol red. MCF-7 were grown in EMEM with 10% FBS and 1% penicillin-streptomycin (P/S). T47D were cultured in MEM with 10% FBS and 1% P/S. TYS and TDG cells were grown in MEM supplemented with 10% CD-FBS and 1% P/S. HCT-116 and MDA-MB-231 cells were cultured in RPMI-1640 supplemented with 10% FBS and 1% P/S. MDA-MB-436 cells were cultured in DMEM supplemented with 10% FBS and 1% P/S. HT-29 were cultured in McCoy's media supplemented with 10% FBS and 1% P/S. All cell lines were used directly from ATCC stocks and/or have been further authenticated using PowerPlex16HS Assay (Promega) as described previously.^54 In short, >1 million cells were harvested and lysed using the cell lysis buffer (50 mM Tris, 50 mM EDTA, 25 mM sucrose, 100 mM NaCl, 1% SDS, pH 8). DNA extraction and short tandem repeats (STRs) profiling for each cell line were carried out at the University of Arizona Genetics Core (UAGC). Autosomal STR profiles were compared to reference databases such as ATCC, DSMZ, and JCRB.
(§2) Alamar Blue Fluorescence for Anticancer Activity (IC50). 2,000-15,000 cells per well were seeded a 96-well plate. Cells were allowed to adhere before DMSO stock solutions of test compounds were added to each well with a final concentration of DMSO in each well=1%; final volume: 100 μL. At the end of the desired incubation time (e.g., 24 or 72 hours), media in each well was aspirated and new fresh media (no compound, 100 μL) was added. Alamar blue solution (4 mg resazurin per 40 mL PBS) was then added (10 μL). After 2-6 hours incubation, each well's fluorescence (λexcit.=555 nm, λemission.=585 nm) was measured using a SpectraMax M3 plate reader (Molecular Devices). Percent dead was determined by comparison to a 100% dead control: 100 μM raptinal treated cells. Dose dependent curves and IC50 were calculated using Origin Pro V10.

[2] = Maximum tolerated dose (MTD) in rats; assay type: in vivo; conditions: Sprague Dawley, in vivo, iv; Rat, I.V., single dose; read-out: MTD
Source text: (§3) Maximum Tolerated Dose (MTD) Experiments in Mice and Rats. […] Rodents were monitored for signs of distress, lethargy, neurotoxicity, and so forth for multiple days after compound administration. […] The MTD was defined as the maximum dose in which any acute side effects observed were tolerated and no lethality observed.

[3] = system: CD Sprague Dawley IGS rats; assay: Maximum tolerated dose (MTD) in rats; assay type: in vivo; conditions: Rat, I.V.
Source text: as §3

[4] = system: HCT-116; assay: Alamar blue fluorescence viability (IC50), HCT-116; assay type: cell-based; conditions: for IC50: Homo sapiens
Protocol: as §1, §2

[5] = Simulated gastric fluid (SGF) stability assay; assay type: in vitro ADME; conditions: 100 μM in SGF with pepsin, 120 min
Protocol: Simulated Gastric Fluid (SGF) Stability Assay. SGF was prepared fresh by adding 3.2 g pepsin (Sigma Aldrich P7000) to 1000 mL of SGF (Fischer Scientific 7108-16) and the pH adjusted to 1.2 using a pH meter. This SGFwith pepsin solution was then warmed to 37° C. 990 μL of warmed SGFwith pepsin was then aliquoted into multiple Eppendorf tubes, followed by 10 μL of 10 mM DMSO stock solutions of test compounds. Erythromycin (MedChemExpress HY-B0220) is a positive control for this stability assay. Samples were incubated at 37° C. for the entire experiment with vortexing every 15 minutes. At each desired time point (0, 15, 30, 60, 120 minutes), a 100 μL aliquot is removed and quenched into 50 μL of acetonitrile. Samples are stored at 4° C. until all time points are complete. Samples were then vortexed and then clarified at 3,000 RPM for 10 minutes in a 4° C. centrifuge. Supernatants were collected and compound concentrations determined by LC-MS/MS (UIUC Metabolomics Center, Urbana, IL.). Determined compound concentrations were used to calculate percent remaining compared to t=0 samples.

[6] = system: MDA-MB-436; assay: Alamar blue fluorescence viability (IC50), MDA-MB-436; assay type: cell-based; conditions: for IC50: Homo sapiens
Protocol: as §1, §2

[7] = system: MCF-7 tumors; assay: MCF-7 orthotopic tumor model; assay type: in vivo, mice
Protocol: MCF-7 Orthotopic Tumor Model. Nu/J ovariectomized mice (Jackson's lab) were supplemented with a 60-day E2 pellet (0.36 mg, Innovative Research of America) 2-3 days prior to tumor cell inoculation. MCF-7 cells (5×10^6, in 1:1 HBSS:matrigel) were inoculated into the mammary fat pad and allowed to establish and tumors grown to ˜300-400 mm^3 (˜21-28 days to establish). […] Tumor size was measured by caliper, and mouse weights were recorded.

[8] = system: MCF-7 cells; assay: Alamar blue fluorescence viability (IC50), MCF-7; assay type: cell-based; conditions: Homo sapiens
Protocol: as §1, §2

[9] = Pharmacokinetic (PK) studies in mice; assay type: in vivo
Protocol: Pharmacokinetic (PK) Studies. […] Mice were then sacrificed in cohorts of 3 at time points (#, #, #). Blood was collected, centrifuged, and plasma separated for quantification of test compound utilizing LC-MS/MS (UIUC Metabolomics Center, Urbana, IL.). Determined compound concentration was then analyzed using non-linear regression programing (WinNonlin) and pharmacokinetic parameters estimated.

[10] = system: HT-29; assay: Alamar blue fluorescence viability (IC50), HT-29; assay type: cell-based; conditions: for IC50: Homo sapiens
Protocol: as §1, §2

[11] = system: T47D-ERaY537S (TYS); assay: Alamar blue fluorescence viability (IC50), TYS; assay type: cell-based; conditions: 24 h, read-out: IC50 24 hr (μM)
Protocol: as §1, with “DNA extraction and short tandem repeats (STRs) profiling for each cell line were carried out at the University of Arizona Genetics Core (UAGC). Autosomal STR profiles were compared to reference databases such as ATCC, DSMZ, and JCRB.” left out
Alamar Blue Fluorescence for Anticancer Activity (IC50). […] After 2-6 hours incubation, each well's fluorescence (λexcit.=555 nm, λemission.=585 nm) was measured using a SpectraMax M3 plate reader (Molecular Devices). Percent dead was determined by comparison to a 100% dead control: 100 μM raptinal treated cells. Dose dependent curves and IC50 were calculated using Origin Pro V10.

[12] = female, CD-1, mouse, in vivo, iv, I.V. 20 mg/kg

Question: What does the source list for `O=C1Nc2c(C(F)(F)F)cccc2[C@@]1(c1ccc(O)cc1)N1CCC(F)(F)CC1` (single isomer, unassigned) [ErSO-DFP]?
Answer: average fold difference between IC50 values of ERα+ and ERα− cancer cell lines ([1]; measured at both 24 and 72 hours): > 2750 fold; IC50 ([1]; read-out: IC50 in ERα− cell lines): > 25 µM; MTD [2]: > 50 mg/kg; Fold Increase Rel. to ErSO (MTD) [3]: 3.3-5; MTD ([3]; single dose): >50 mg/kg; Fold Change ([4]; Average Fold Change between 24/72 hr IC50 values for MCF-7 and HCT-116): 3235; effects bottom out at (% cell death at lower concentrations) ([4]; HCT-116 cells, bottom of IC50 curve): ~0%; IC50 ([4]; HCT-116, 24 h, read-out: IC50 24 hr (μM)): 55 µM; IC50 ([4]; HCT-116, 72 h, read-out: IC50 72 hr (μM)): 55 µM; % Remaining after 120 min (SD) [5]: 13±1%; Fold Change ([6]; Average Fold Change between 24/72 hr IC50 values for MCF-7 and MDA-MB-436): 3235; IC50 ([6]; MDA-MB-436, 24 h, read-out: IC50 24 hr (μM)): 64 ± 3 µM; IC50 ([6]; MDA-MB-436, 72 h, read-out: IC50 72 hr (μM)): 55 ± 9 µM; mouse weight change during MCF-7 study ([7]; I.V. 5 mg/kg once-a-week, three total doses): no significant weight change; antitumor effect on MCF-7 tumors ([7]; I.V. 5 mg/kg once-a-week, three total doses, tumors >300 mm^3): profound regression of MCF-7 tumors; increase in therapeutic index (TI) relative to ErSO ([7]; from efficacy data and head-to-head MTD studies): ≥ 5 fold; IC50 ([8]; MCF7, 24 h, read-out: IC50 24 hr (μM)): 0.017 ± 0.002 µM; IC50 ([8]; MCF7, 72 h, read-out: IC50 72 hr (μM)): 0.017 ± 0.001 µM; IC50 ([8]; MCF7, read-out: pIC50 (converted)): 0.017 µM; AUC ratio ErSO-DFP:ErSO ([9]; I.V. 20 mg/kg): 0.6; CL ratio ErSO-DFP:ErSO ([9]; I.V. 20 mg/kg): 1.6; Cmax ratio ErSO-DFP:ErSO ([9]; I.V. 20 mg/kg): 1.9; MRT ratio ErSO-DFP:ErSO ([9]; I.V. 20 mg/kg): 0.2; Vss ratio ErSO-DFP:ErSO ([9]; I.V. 20 mg/kg): 0.3; AUC as % of the ErSO value ([9]; I.V., head-to-head): ~60%; AUC [9, 12]: 6370 ng·h/mL; Cmax [9, 12]: 14700 ng/mL; MRT [9, 12]: 52.8 min; clearance [9, 12]: 52 mL/min/kg; Vd ([9]; female, CD-1, mouse, in vivo, iv, I.V. 20 mg/kg, read-out: Vss): 2.75 L/kg; bioavailability ([9]; female, CD-1, mouse, in vivo, po, read-out: oral availability F %): 6%; Fold Change ([10]; Average Fold Change between 24/72 hr IC50 values for MCF-7 and HT-29): 1588; IC50 ([10]; HT-29, 24 h, read-out: IC50 24 hr (μM)): 33 ± 4 µM; IC50 ([10]; HT-29, 72 h, read-out: IC50 72 hr (μM)): 27 ± 4 µM; IC50 [11]: 0.007 ± 0.001 µM
